# Measured values reported in patent US8067600B2, “Histone deacetylase inhibitors and methods of use thereof” (Georgetown University, priority 2003, dated 2011).
# Where two headings read alike, the source gives them in different places.
# Tests used:
# SQ-20B cells [1] = system: SQ-20B cells
# Protocol: (§3) For each concentration indicated, individual T25 flasks were seeded with the following number of SQ-20B cells: for no drug, 10 μM and 50 μM drug concentrations, separate T25 flasks were each seeded with 100 cells; for 100 μM and 300 μM drug concentrations, separate T25 flasks were each seeded with 200 cells each; and for 500 μM and 1 mM drug concentrations, separate T25 flasks were each seeded with 300 cells each. A Levy Hemacytometer (Hausser Scientific) was used to count the cells in stock suspension. Serial dilutions of stock suspension were performed to obtain the proper concentration for cell seeding. To conduct the cytotoxicity study the SQ20B cells were first seeded under the appropriate treatment specifications and allowed to settle for 24 hr in a tissue culture incubator set at 37° C. and 5% CO2. Cells were treated with their corresponding drugs for 24 hr and then washed with three rinses of PBS (10 mL per rinse) and provided with new media. The cells were then further incubated for colony formation and the colonies were stained using a staining solution consisting of: 5 g Crystal Violet, 700 mL methanol and 300 mL dH2O. The flasks were then destained with three rinses in cold water. After the third rinse the stained colonies were counted and the corresponding IC50 for each drug was calculated.
# HDAC [2] = assay: HDAC activity inhibition assay, HeLa nuclear extracts, Fluor de Lys substrate; assay type: biochemical; details: HeLa nuclear extract, 37° C., 15 min, read-out: 50% HDAC activity inhibition
# Protocol: For each test sample the corresponding assay reaction was performed in triplicate. […] For the selected Compounds of the Invention, samples at the following concentrations were prepared and tested: 1 μM, 5 μM, 10 μM, 100 μM and 1 mM.
# SQ-20B cells [3] = assay: Radiation clonogenic survival assay (radiation sensitization); assay type: cell-based, human; set-up: α / β: unit not given here; details: drug at IC50 concentration for 24 h, then graded gamma radiation; for α / β: linear quadratic model; for Do in SQ-20B Cells (Gy): single hit multi-target model, Do without sensitizer 2.4 Gy
# Protocol: To test the ability of the Compounds of the Invention to sensitize cells to radiation, we used radiation resistant squamous carcinoma cell line, SQ-20B, for initial radiosensitization experiments. SQ-20B is extremely resistant to ionizing radiation (Do=2.4 Gy in the absence of radiation sensitizers). Briefly, logarithmically growing SQ-20B cells were treated with a drug compound at the IC50 concentration (determined using the clonogenic survival assay illustrated in Example 21) for 24 h and then exposed to graded dose of gamma radiation. Clonogenic survivals were determined and fit to the single hit multi-target and the linear quadratic models.
# The shape of radiation survival curves are determined by using either the single-hit multitarget model or the linear-quadratic model. The multitarget model is used to describe the radiation sensitivity of cells defined by the terminal slope of the radiation survival curve, which is referred to as Do. The steeper the slope, the smaller is the value of Do and the more radiation sensitive is the cellular response. Alternatively, a less steep slope results in a larger Do and a more resistant radiation response. The linear-quadratic model is also used to describe the radiation sensitivity defined by two components to cell killing by radiation: one is proportional to dose (αD) and the other is proportional to the square of the dose (βD^2). Thus, the dose at which the linear and quadratic components are equal is the ratio α/β.
# Shown in Table 4 are the results of selected compounds of the invention in the radiation clonigenic survival assay.
# SQ-20B cells [4] = assay: Cytotoxicity in SQ-20B cells (colony formation); details: read-out: Cytotoxicity in SQ-20B cells (IC50); 24 hr drug treatment, colony formation
# Protocol: as §3
# HDAC [5] = assay: In vitro HDAC inhibitory activity using fluor-Lys as the substrate (BIOMOL); assay type: biochemical; details: for IC50: read-out: 50% HDAC Activity Inhibition
# Protocol: The in vitro HDAC inhibitory activity of these compounds was determined by using fluor-Lys as the substrate (BIOMOL).
# [6] = system: human breast cancer cells (MCF-7); assay: Cytotoxicity following 24 h exposure, MCF-7 (FIG. 2); assay type: cell-based; details: breast carcinoma cells (MCF-7)
# Protocol: (§1) FIG. 2 depicts graphically the cytotoxicities of various compounds of the invention following 24 h exposure of human breast cancer cells (MCF-7) and squamous cancer cells (SQ-20B).
# (§2) To test the biological effects of the compounds of this and the previous Example, cytotoxicities were determined following 24 h exposure of human breast cancer cells (MCF-7) and squamous cancer cells (SQ-20B) to three compounds (4g, 4c and 10a). FIG. 2.
# [7] = system: squamous cancer cells (SQ-20B); assay: Cytotoxicity following 24 h exposure, SQ-20B (FIG. 2); assay type: cell-based, human; details: squamous carcinoma cells (SQ-20B)
# Protocol: as §1, §2
# [8] = Cytotoxicity in SQ-20B cells (colony formation); details: human, SQ-20B squamous carcinoma cells
# Protocol: as §3
Compound,IC50 (HDAC [2]) [nM],α (SQ-20B cells [3]),β (SQ-20B cells [3]),Do in SQ-20B Cells (Gy) (SQ-20B cells [3]),IC50 (HDAC [5]; fluor-Lys substrate (BIOMOL)) [nM],further results
4-[3-(4-Dimethylamino-benzyl)-ureido]-N-hydroxy-butyramide [Compound 2],800,0.1681,0.03301,1.62,,IC50 (SQ-20B cells [1]): 50000 nM
5-[3-(4-dimethylamino-benzyl)-ureido]-pentanoic Acid Hydroxyamide [Compound 3],800,0.2420,0.02486,1.72,,IC50 (SQ-20B cells [4]): 25000 nM
"CN(C)c1ccc(C(=O)NCCCNC(=O)CS)cc1 [Compound 4a, 4-Dimethylamino-N-[3-(2-mercapto-acetylamino)-propyl]-benzamide]",,,,,800,
"CN(C)c1ccc(C(=O)NCCCCNC(=O)CS)cc1 [Compound 4b, 4-Dimethylamino-N-[4-(2-mercapto-acetylamino)-butyl]-benzamide]",,,,,4700,
"CN(C)c1ccc(C(=O)NCCCCCNC(=O)CS)cc1 [Compound 4c, 4-Dimethylamino-N-[5-(2-mercapto-acetylamino)-pentyl]-benzamide]",,,,,,cytotoxicities (in words) [6]: dose-dependent cytotoxicities; cytotoxicities (in words) [7]: dose-dependent cytotoxicities; IC50 (HDAC [5]): 200 nM
"CN(C)c1ccc(C(=O)NCCCCCCNC(=O)CS)cc1 [Compound 4d, 4-Dimethylamino-N-[6-(2-mercapto-acetylamino)-hexyl]-benzamide]",,,,,450,
"O=C(CS)NCCCNC(=O)c1ccc(-c2ccccc2)cc1 [Compound 4e, Biphenyl-4-carboxylic acid [3-(2-mercapto-acetylamino)-propyl]-amide]",,,,,800,
"O=C(CS)NCCCCNC(=O)c1ccc(-c2ccccc2)cc1 [Compound 4f, Biphenyl-4-carboxylic acid [4-(2-mercapto-acetylamino)-butyl]-amide]",,,,,13000,
"O=C(CS)NCCCCCNC(=O)c1ccc(-c2ccccc2)cc1 [Compound 4g, Biphenyl-4-carboxylic acid [5-(2-mercapto-acetylamino)-pentyl]-amide]",,,,,550,
"O=C(CS)NCCCCCNC(=O)c1ccccc1 [Compound 4h, N-[5-(2-Mercapto-acetylamino)-pentyl]-benzamide]",,,,,1100,
"O=C(CS)NCCCCCCNC(=O)c1ccccc1 [Compound 4i, N-[6-(2-Mercapto-acetylamino)-hexyl]-benzamide]",,,,,900,
"O=C(CS)NCCCCCCNC(=O)CS [Compound 4j, 2-Mercapto-N-[6-(2-mercapto-acetylamino)-hexyl]-acetamide]",,,,,10000,
"CN(C)c1ccc(C(=O)NCc2ccc(CNC(=O)CS)cc2)cc1 [Compound 4k, 4-Dimethylamino-N-{4-[(2-mercapto-acetylamino)-methyl]-benzyl}-benzamide]",,,,,200,in vitro HDAC inhibitory activity (in words) (HDAC [5]; fluor-Lys substrate (BIOMOL)): comparable HDAC inhibitory activity
"O=C(CS)NCCCCCNC(=O)c1cnc2ccccc2c1 [Compound 4l, Quinoline-3-carboxylic acid [5-(2-mercapto-acetylamino)-pentyl]-amide]",,,,,250,
"O=C(CS)NCCCCCNC(=O)c1cccc2cccnc12 [Compound 4m, Quinoline-8-carboxylic acid [5-(2-mercapto-acetylamino)-pentyl]-amide]",,,,,400,
"CN(C)c1ccc(CNC(=O)NCCCCCCC(=O)NO)cc1 [Compound 5, 7-[3-(4-dimethylamino-benzyl)-ureido]-heptanoic Acid Hydroyxamide]",1000,0.1978,0.02561,1.78,,IC50 at 24 h [8]: 50000 nM
"CN(C)c1ccc(CNC(=O)NCCCCCCCC(=O)NO)cc1 [Compound 6, 8-[3-(4-dimethylamino-benzyl)-ureido]-octanoic Acid Hydroxyamide]",700,0.2846,0.01761,1.94,,IC50 at 24 h [8]: 50000 nM
"CN(C)c1ccc(NC(=O)NCCCCCCC(=O)NO)cc1 [Compound 7, 7-[3-(4-dimethylamino-phenyl)-ureido]-heptanoic Acid Hydroxyamide]",700,0.1391,0.03335,1.57,,IC50 at 24 h [8]: 10000 nM
"O=C(CCCCCNC(=O)NC12CC3CC(CC(C3)C1)C2)NO [Compound 8, 6-(3-Adamantan-1-yl-ureido)-hexanoic Acid Hydroxyamide]",800,0.2378,0.02282,1.78,,IC50 at 24 h [8]: 50000 nM
"O=C(CS)NCCCCCNC(=O)Nc1ccccc1 [Compound 9, 2-Mercapto-N-[5-(3-phenyl-ureido)-pentyl]-acetamide]",900,,,,,
"O=C(CS)NCCCCCCNC(=O)Nc1ccccc1 [Compound 10, 2-Mercapto-N-[6-(3-phenyl-ureido)-hexyl]-acetamide]",900,0.1135,0.01558,2.54,,IC50 at 24 h [8]: 50000 nM
"O=C(CS)NCCCCCNC(=O)NCc1ccccc1 [Compound 11, N-[5-(3-benzyl-ureido)-pentyl]-2-mercapto-acetamide]",1600,,,,,
O=C(CS)NCCCCCCNC(=O)c1ccccc1 [Compound 21],1600,,,,,
CN(C)c1ccc(C(=O)NCCCCCCNC(=O)CS)cc1 [Compound 22],800,,,,,
O=C(CS)NCCCCCNC(=O)c1ccc(-c2ccccc2)cc1 [Compound 23],750,,,,,
CN(C)c1ccc(C(=O)NCCCCCNC(=O)CS)cc1 [Compound 24],800,,,,,
O=C(CS)NCCCCCNC(=O)c1ccccc1 [Compound 25],1000,,,,,
"O=C(CCCCCCC(=O)Nc1ccccc1)NO [SAHA, suberoylanilide hydroxamic acid, reference compound]",,0.01197,0.03152,1.88,,
"CC(/C=C/C(=O)NO)=C\[C@@H](C)C(=O)c1ccc(N(C)C)cc1 [TSA, 7-(4-(dimethylamino)phenyl)-n-hydroxy-4,6-dimethyl-7-oxo-2,4-heptadienamide, reference compound]",,0.1260,0.03059,1.65,,IC50 at 24 h [8]: 200 nM
